In US20230338270A1, “COSMETIC COMPOSITION FOR SKIN IMPROVEMENT COMPRISING, AS ACTIVE INGREDIENTS, POLYSACCHARIDES, YEAST EXTRACT, AND STRAIN FERMENTATION PRODUCT WITH CHARACTERISTICS OF PROBIOTICS” (LG HOUSEHOLD & HEALTH CARE LTD., priority 2020, published 2023):

How the values were obtained:
Format in all cases: cell-based
[1] = system: human dermal papilla cells; assay: Activity of dermal papilla cells (CCK-8, optical density at 450 nm); details: 1 µM, control group
Method: In order to identify the effect of the complexes of Preparation Examples on dermal papilla cells, human dermal papilla cells (Promocell, C-12071) in the 4-8 passage were used as a cell line, and follicle dermal papilla cell growth media (Promocell, C-26501) were used as an initial culture medium.
Cells were seeded at a level of 3,000 to 6,000 cells per well in a 96-well plate, and cultured in an incubator at 37° C. in the presence of 5% carbon dioxide for 24 hours. Thereafter, the culture medium was replaced with DMEM medium supplemented with 0.1% fetal bovine serum (FBS) and cultured in an incubator at 37° C. in the presence of 5% carbon dioxide for 24 hours. Thereafter, the culture medium was replaced with DMEM supplemented with 0.1% FBS treated with the complexes according to Preparation Examples 1 to 7 by each concentration, followed by culture in an incubator at 37° C. in the presence of 5% carbon dioxide for 48 hours. After treating 10 µl of CCK-8 solutions per well, culture was performed at 37° C. for 1 hour, and optical density was measured at 450 nm.
The difference between the optical density measurement value and the initial measurement value after 48 hours for each well was standardized by dividing the difference by the initial measurement value for evaluation, and the average value was shown in Table 8 below. 1 µM minoxidil was treated as a control group. […]

[2] = system: mouse Raw 264.7 cell line; assay: Suppression of inflammatory factor NO (Griess reagent, LPS-treated cells); details: 20 µg/mL, 1 µg/mL LPS, 24 hours, control group
Method: In order to identify the effect of the complexes of Preparation Examples on the production of NO as an inflammatory factor in cells, a mouse Raw 264.7 cell line was used, and a culture medium whose final pH was adjusted to 8.5 through addition of NaOH to Complete RPMI (RPMI:FBS:antibiotic = 10:1:0.1) was used as an initial culture medium.
When the Raw 264.7 cells appeared at the top of the culture medium after culture at 37° C. in the presence of 5% carbon dioxide for 24 hours, the cells were seeded in a 24-well plate in which a DMEM culture was prepared, followed by culture at 37° C. in the presence of 5% carbon dioxide for 24 hours. Thereafter, treatment was performed after diluting the complexes according to Preparation Examples 1 to 7 by the following concentrations while replacing the medium with a serum-free DMEM culture medium, followed by additional treatment of 1 µg/mL of LPS. After culture at 37° C. in the presence of 5% carbon dioxide for 24 hours, the supernatant was mixed with Griess reagent (Sigma-Aldrich) in a ratio of 1:1 to evaluate the ability to inhibit NO production with absorbance, and the average value was shown in Table 9 below.
NO production inhibition ability (%) = {1 - (NO production when compound is added / NO production in untreated group)} × 100
20 µg/mL of L-NMMA1 (N^G-Methyl-L-arginine acetate salt), an NO inhibitor, was used as a control group.

human skin fibroblasts = assay: Collagen biosynthesis rate (procollagen type I C-peptide EIA kit); details: 10 ng/mL, 48 hours, control group
Method: The effect of the complexes of Preparation Examples on the collagen biosynthesis rate in the human skin fibroblasts was identified. Skin fibroblasts were cultured in complete DMEM culture at 37° C. in the presence of 5% carbon dioxide for 72 hours. After seeding in a 24-well plate, culture was performed at 37° C. in the presence of 5% carbon dioxide for 24 hours. After treating the complexes according to Preparation Examples and culturing at 37° C. in the presence of 5% carbon dioxide for 48 hours, only the supernatant was separated, and the collagen synthesis effect was observed by absorbance using a procollagen type I C-peptide (PIP) EIA kit.
Collagen biosynthesis increase rate (%) = {(Absorbance of complex treated group -Absorbance of untreated group) / Absorbance of untreated group} × 100
10 ng/mL of TGF-β, a cytokine, was used as a control group.

[3] = system: Staphylococcus aureus (S. aureus); assay: Effect on growth of harmful bacteria (optical density after culture in TSB); details: for Effect on reduction in harmful bacteria (in words): Table 7; for Harmful bacteria (S. aureus), average degree of increase or decrease compared to the untreated group: inoculated at a concentration of 1%, rotary culture 37° C. 16 hours
[4] = system: Staphylococcus epidermidis (S. epidermidis); assay: Effect on growth of beneficial bacteria (optical density after culture in TSB); details: for Effect on increase in beneficial bacteria (in words): Table 7; for Beneficial bacteria (S. epidermidis), average degree of increase or decrease compared to the untreated group: inoculated at a concentration of 1%, rotary culture 37° C. 16 hours

| Molecule | Dermal papilla cell activity, Average (optical density difference after 48 hours divided by initial value) [1] | NO production inhibition ability, Average [2] | Collagen biosynthesis increase rate, Average (human skin fibroblasts) | Effect on reduction in harmful bacteria (in words) [3] | Harmful bacteria (S. aureus), average degree of increase or decrease compared to the untreated group [3] | Effect on increase in beneficial bacteria (in words) [4] | Beneficial bacteria (S. epidermidis), average degree of increase or decrease compared to the untreated group [4] |
| --- | --- | --- | --- | --- | --- | --- | --- |
| Nc1cc(N2CCCCC2)nc(N)[n+]1[O-] [Minoxidil, minoxidil] | 44.2 |  |  |  |  |  |  |
| CC(=O)O.CNC(=N)NCCC[C@H](N)C(=O)O [L-NMMA1, N^G-Methyl-L-arginine acetate salt] |  | 52.1% |  |  |  |  |  |
| TGF-β |  |  | 36.6% |  |  |  |  |
| Inulin |  |  |  | no significant effect | -0.84% | no significant effect | 0.29% |
| Beta-glucan |  |  |  | no significant effect | -0.78% | no significant effect | -0.26% |
| Maltodextrin |  |  |  | no significant effect | 1.43% | no significant effect | 0.14% |
